# Experimental data from patent US20070292888A1, “Methods for Measuring Enzyme Activities in Cells, Blood, Tumors and Tissues” (GEN-PATH PHARMACEUTICALS, INC., priority 2004, published 2007).
# Target: T1, alpha-ketoglutarate dehydrogenase (kGDH) (Mus musculus, UniProt Q60597)
# T1 construct: from tissue; host or cells: mouse brain, blood, tumor and other organs (crude lysates)
# T1 sequence (Q60597 41-1023): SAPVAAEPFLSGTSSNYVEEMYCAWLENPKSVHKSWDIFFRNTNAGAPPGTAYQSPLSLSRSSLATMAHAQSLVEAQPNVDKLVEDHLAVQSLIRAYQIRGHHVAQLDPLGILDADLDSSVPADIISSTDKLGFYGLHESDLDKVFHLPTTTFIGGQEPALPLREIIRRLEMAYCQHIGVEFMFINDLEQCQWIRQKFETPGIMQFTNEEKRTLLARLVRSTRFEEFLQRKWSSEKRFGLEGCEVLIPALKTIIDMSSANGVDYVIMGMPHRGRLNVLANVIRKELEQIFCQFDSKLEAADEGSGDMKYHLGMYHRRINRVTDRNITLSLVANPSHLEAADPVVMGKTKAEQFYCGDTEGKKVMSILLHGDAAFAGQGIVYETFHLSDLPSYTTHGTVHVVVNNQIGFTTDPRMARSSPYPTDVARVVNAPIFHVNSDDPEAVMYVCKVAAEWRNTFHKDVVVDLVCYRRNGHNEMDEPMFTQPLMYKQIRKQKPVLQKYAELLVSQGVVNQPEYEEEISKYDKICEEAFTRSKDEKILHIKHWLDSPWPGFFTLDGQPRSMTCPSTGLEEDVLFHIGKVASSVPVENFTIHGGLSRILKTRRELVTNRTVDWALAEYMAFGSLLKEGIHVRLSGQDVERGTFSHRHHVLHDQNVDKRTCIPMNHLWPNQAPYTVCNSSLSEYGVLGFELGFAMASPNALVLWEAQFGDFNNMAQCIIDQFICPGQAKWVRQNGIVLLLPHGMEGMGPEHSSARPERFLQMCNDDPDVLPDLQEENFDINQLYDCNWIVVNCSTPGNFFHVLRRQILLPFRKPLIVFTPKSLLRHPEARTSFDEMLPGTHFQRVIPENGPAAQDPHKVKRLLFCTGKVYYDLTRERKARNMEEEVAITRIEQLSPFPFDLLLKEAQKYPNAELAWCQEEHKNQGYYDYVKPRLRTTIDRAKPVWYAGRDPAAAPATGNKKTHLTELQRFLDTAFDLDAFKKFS
# T1 sequence (Q9D2G2 69-454 partner): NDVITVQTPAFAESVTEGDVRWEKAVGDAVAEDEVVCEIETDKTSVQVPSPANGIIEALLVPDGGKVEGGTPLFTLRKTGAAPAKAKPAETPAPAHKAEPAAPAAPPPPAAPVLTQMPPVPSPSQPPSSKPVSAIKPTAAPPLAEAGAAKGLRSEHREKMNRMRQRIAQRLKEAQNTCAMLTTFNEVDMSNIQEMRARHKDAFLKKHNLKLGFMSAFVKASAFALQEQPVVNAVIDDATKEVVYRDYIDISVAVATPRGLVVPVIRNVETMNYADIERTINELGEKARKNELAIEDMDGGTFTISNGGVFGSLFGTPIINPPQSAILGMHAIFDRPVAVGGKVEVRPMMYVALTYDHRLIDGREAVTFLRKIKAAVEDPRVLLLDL
# T1 sequence (O08749 36-509 partner): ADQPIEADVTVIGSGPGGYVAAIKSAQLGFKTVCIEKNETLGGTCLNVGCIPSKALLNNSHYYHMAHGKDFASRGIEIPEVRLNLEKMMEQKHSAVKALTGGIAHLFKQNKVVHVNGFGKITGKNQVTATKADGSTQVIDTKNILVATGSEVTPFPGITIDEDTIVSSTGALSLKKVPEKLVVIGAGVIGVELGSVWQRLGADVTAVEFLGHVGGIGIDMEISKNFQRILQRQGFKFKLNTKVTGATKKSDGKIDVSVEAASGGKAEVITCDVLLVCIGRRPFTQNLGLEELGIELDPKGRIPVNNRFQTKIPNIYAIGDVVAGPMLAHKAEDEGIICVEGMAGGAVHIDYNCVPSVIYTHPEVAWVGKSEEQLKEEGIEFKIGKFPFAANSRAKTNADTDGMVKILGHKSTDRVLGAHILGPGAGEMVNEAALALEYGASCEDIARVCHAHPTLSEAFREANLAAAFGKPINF
# Test: alpha-ketoglutarate dehydrogenase activity in tissues of treated mice (fluorescence NADH assay)
# Type: in vivo
# Method: Blood samples from mice were taken (40 μl whole blood) serially or from mice sacrificed at the end of the experiment. Tissues, such as tumors (e.g. from implantation, xenograft, or arising spontaneously), brain, heart, kidney, liver, lung and spleen were taken and flash frozen in liquid nitrogen or on dry ice and stored in −80° C. until time of assay. Four volumes of cold lysis buffer (20 mM HEPES, pH 7.5, 1 mM EDTA, 0.2 g/l Triton X-100® and 0.2 g/L sodium deoxycholate, supplemented with 1 mM DTT and 1 mM PMSF just before use) were added to the blood, which was dissolved by vortexing. For blood that was frozen before coagulation, a clear lysate was obtained. If coagulation occurred, homogenization was used as described below for tissue. Tissues were suspended in lysis buffer in 10 ml round bottom tubes and homogenized with PowerGen 125® (Fisher Scientific) for four seconds at highest power while submerged in an ice-water bath. This step was repeated after a few seconds, as necessary. […]
# Each reaction was monitored for the appearance of NADH (for transketolase, alpha-ketoglutarate dehydrogenase, pyruvate dehydrogenase) or NADPH (for glucose-6-phosphate dehydrogenase) at room temperature in a fluorescent plate reader with excitation at 340 nm and emission at 470 nm in kinetic mode. The velocity was determined by the slope of the initial linear range of increasing fluorescence, expressed in fluorescent units (FU)/min. The protein concentration in the lysate was determined using Bradford assays (BioRad) with BSA as a standard. […]
# To investigate the amount of in vivo enzyme inhibition following treatment with an inhibitor, we administered a single dose of N3PT (100 mg/kg, intraperitoneally [i.p.]) and blood, spleen and brain samples were collected at various times from 0-120 hours after dosing. The enzymatic activities were determined as described in Example 1. TK activity was measured in blood and spleen. Because TK activity in the brain is below the detection limit of the assay, kGDH activity was measured in brain samples. […]
structure (smiles),measurement,setting,value
"Cc1ccc(C[n+]2csc(CCO)c2C)c(N)n1 [N3PT, 3-[(2-amino-6-methyl-3-pyridinyl)methyl]-5-(2-hydroxyethyl)-4-methyl thiazolium]",kGDH activity in blood,"11 days i.p. twice per day, blood",obliterated
same,brain penetration,"after a single dose 100 mg/kg i.p., inferred from brain kGDH activity",little or no significant brain penetration
same,inhibition of brain kGDH activity,"single dose 100 mg/kg i.p., 0-120 hours",No significant inhibition
